Patent US20250243174A1, “ANTITUMORAL COMPOUNDS” (PHARMA MAR, S.A., priority 2021, published 2025)
Read-outs that look alike come from different tables or passages of the source.

Columns and labels:
HT29 = experiment: SRB colorimetric cytotoxicity assay, HT29; type: cell-based; conditions: Homo sapiens, read-out: GI50 (M) HT29
Text: The aim of this assay is to evaluate the in vitro cytostatic (ability to delay or arrest tumor cell growth) or cytotoxic (ability to kill tumor cells) activity of the samples being tested.
A colorimetric assay, using sulforhodamine B (SRB) reaction has been adapted to provide a quantitative measurement of cell growth and viability (using the technique developed by Skehan et al., J. Natl. Cancer Inst. 1990 and following the protocol detailed in V. Vichai and K. Kirtikara (2006) Nature Protoc. 1, 1112-1116.)
This form of assay employs 96-well cell culture microplates. All the cell lines used in this study were obtained from the American Type Culture Collection (ATCC), unless otherwise indicated, and derive from different types of human cancer.
Cells were maintained in Dulbecco's Modified Eagle Medium (DMEM) (for A549, HT-29 and MDA-MB-231) or RPMI (for PSN-1) supplemented with 10% Fetal Bovine Serum (FBS), 2 mM L-glutamine, 100 U/mL penicillin and 100 U/mL streptomycin at 37° C., 5% CO2 and 98% humidity. For the experiments, cells were harvested from subconfluent cultures using trypsinization and resuspended in fresh medium before counting and plating.
Cells were seeded in 96 well microtiter plates, at 5×10^3 cells per well in aliquots of 150 μL, and allowed to attach to the plate surface for 18 hours (overnight) in drug free medium. After that, one control (untreated) plate of each cell line was fixed (as described below) and used for time zero reference value. Culture plates were then treated with test compounds (50 μL aliquots of 4× concentrated compound stock solutions made in complete culture medium) using ten serial dilutions (concentrations ranging from […]) and triplicate cultures (final concentration of DMSO being 1%). After 72 hours treatment, the antitumor effect was measured by using the SRB methodology: Briefly, cells were washed twice with PBS, fixed for 15 min in 1% glutaraldehyde solution at room temperature, rinsed twice in PBS, and stained in 0.4% SRB solution for 30 min at room temperature. Cells were then rinsed several times with 1% acetic acid solution and air-dried at room temperature. SRB was then extracted in 10 mM trizma base solution and the absorbance measured in an automated spectrophotometric plate reader at 490 nm. Effects on cell growth and survival were estimated by applying the NCI algorithm (Boyd M R and Paull K D. Drug Dev. Res. 1995, 34, 91-104).
Using the mean±SD of triplicates, a dose-response curve was automatically generated using nonlinear regression analysis to a 4-parameter logistic curve. Three reference parameters were calculated (NCI algorithm) by automatic interpolation: GI50=compound concentration that produces […] cell growth inhibition, as compared to control cultures.

HGC-27 xenografts = experiment: Example 6, gastric xenograft model HGC-27; type: in vivo; conditions: for mean body weight reduction: Day 2, compound 2 2.0, compound 3 1.0, PM060184 16 mg/kg; for TV, median (IQR) / Median survival time: iv Q7dx3; for TV, median (IQR): high dose: PM060184 16, Comp. 2 2, Comp. 3 1 mg/kg; for mean time frame with tumor remission: high dose: compound 2 2.0, compound 3 1.0, PM060184 16 mg/kg, last observed day 63; for animals in complete tumor remission status: highest dose: compound 2 2.0, compound 3 1.0 mg/kg; for antitumor activity compared to PM060184-treated group at 16 mg/kg: once treatments were stopped (days 28, 35), 2 at 2 mg/kg, 3 at 1 mg/kg
Experimental: Female athymic nu/nu mice (Harlan Laboratories Models, S.L. Barcelona, Spain or Envigo, Spain) were utilized for all experiments. Animal were housed in individually ventilated cages Sealsafe® Plus, Techniplast S.P.A.), up to ten per cage on a 12-hour light-dark cycle at 21-23° C. and 40-60% humidity. Mice were allowed free access to irradiated standard rodent diet (Tecklad 2914C) and sterilized water. Animals were acclimated for at least 5 days prior to tumor implantation with a tumor cell suspension.
HGC27 cells were maintained in vitro at 37° C. with 5% CO2 in Iscove's Modified Dulbecco's Medium (Sigma Aldrich, Co). Culture cells were passage every 3 to 5 days on reaching confluence. Each animal was subcutaneously implanted (on the right flank using 26G needle and a 1 cc syringe) at 4-6 weeks of age with 5×10^6 HGC-27 cells suspended in 0.05 mL of a solution consisting of 50% Matrigel® (Corning Incorporated Life Sciences), 50% medium without serum or antibiotics.
All treatments were intravenously administered on a weekly basis at their MTD, ¼ MTD and 1/16 MTD (high, medium and low dose).
Briefly: • 4 to 6 week-old athymic nu/nu female mice were subcutaneously implanted with tumor cells growing in culture. • When tumors reached a certain volume, tumor bearing animals (N=8-10/group) were randomly allocated into treatment groups. • Tumor dimensions and body weights were recorded 2-3 times per week starting from the first day of treatment (Day 0). Treatments producing >20% lethality and/or 20% net body weight loss were considered toxic. Tumor volume was calculated using the equation (a·b^2)/2, where a and b were the longest and shortest diameters, respectively. Animals were euthanized when their tumors reached ca. 2,000 mm^3 and/or severe necrosis was seen. • Median was calculated for tumor volume on each measurement day. • Antitumor effect was assessed comparing tumor volume data from groups following the 1st, 2nd, 3rd study weeks, or more depending on the case, using a two-tailed Mann-Whitney U test. The data are presented as medians and interquartile range (IQR). • Complete tumor regression (CR) was defined when tumor volume<63 mm^3 for 2 or more consecutive measurements. • Treatment tolerability was assessed by monitoring body weight evolution, clinical signs of systemic toxicity as well as evidences of local damage at the injection site.
PM060184 was provided in the form of freeze-dried vials of lyophilized product. Each vial was reconstituted with water for infusion to a concentration of 2.5 mg/mL.
Compounds 2 and 3 were provided in the powder form and were solubilized with hydroxy-propyl-β-cyclodextrin (HPβCD), reaching a concentration of 1 mg/ml or 0.2 mg/ml, respectively. Placebo was provided in the form of lyophilised cake containing 1.2 g of hydroxy-propyl-β-cyclodextrin (HPβCD) which was reconstituted with water for infusion.
In these experiments, compounds 2, 3 and PM060184, as well as placebo, were intravenously administered once per week for 3 consecutive weeks, on Days 0, 7 and 14, whenever it was possible.
The experiment was carried out as previously explained. When tumors reached ca. 165-175 mm^3, tumor bearing animals (N=8/group) were randomly allocated into the following treatment groups:
Treatments were initiated on Day 0.

[1] = high dose: PM060184 16.0, Comp. 2 2.0, Comp. 3 1.0 mg/kg, ud = group not reached mortality
[2] = low dose: PM060184 1.0, Comp. 2 0.125, Comp. 3 0.0625 mg/kg
[3] = medium dose: PM060184 4.0, Comp. 2 0.5, Comp. 3 0.25 mg/kg

| SMILES | GI50 (HT29; HT-29, 72 h) | mean body weight reduction (HGC-27 xenografts) | TV, median (IQR) (HGC-27 xenografts; Day 7) | TV, median (IQR) (HGC-27 xenografts; Day 14) | TV, median (IQR) (HGC-27 xenografts; Day 21) | TV, median (IQR) (HGC-27 xenografts; Day 28) | TV, median (IQR) (HGC-27 xenografts; Day 35) | Median survival time (HGC-27 xenografts; [1]) | mean time frame with tumor remission (HGC-27 xenografts) | animals in complete tumor remission status (HGC-27 xenografts) | Median survival time (HGC-27 xenografts; [2]) | Median survival time (HGC-27 xenografts; [3]) | antitumor activity compared to PM060184-treated group at 16 mg/kg (HGC-27 xenografts) | GI50 (HT29; HT-29, 72 hours treatment, SRB) | animals that reached a complete remission (number out of eight) (HGC-27 xenografts; PM060184 16 mg/kg (high-dose)) |
| --- | --- | --- | --- | --- | --- | --- | --- | --- | --- | --- | --- | --- | --- | --- | --- |
| COC1=CC[C@@H]([C@@H](C)/C=C(C)/C=C\C=C/C(=O)N[C@H](C(=O)N/C=C\C[C@H](CC=C(C)C)OC(N)=O)C(C)(C)C)OC1=O [Compound 3] | 2.22e-11 M | ca. −13.1% | 366.0 (300.1-479.8) mm3 | 177.1 (142.3-256.0) mm3 | 75.0 (65.6-84.4) mm3 | 66.7 (38.2-73.7) mm3 | 27.3 (21.4-41.4) mm3 | ud | higher than 31.5 days | 100% | 12 days | 30 days | big difference, in terms of antitumor activity, statistically significant |  |  |
| COC1=CC[C@@H]([C@@H](C)/C=C(C)/C=C\C=C/C(=O)N[C@H](C(=O)N/C=C\C[C@H](C/C=C(\C)F)OC(N)=O)C(C)(C)C)OC1=O [Compound 2] | 1.31e-11 M | ca. −13.1% | 313.6 (237.3-482.4) mm3 | 143.2 (96.1-223.6) mm3 | 75.0 (51.6-75.0) mm3 | 42.5 (37.0-63.9) mm3 | 32.9 (20.4-36.6) mm3 | ud | higher than 29.1 days | 100% | 14 days | 38.5 days | big difference, in terms of antitumor activity, statistically significant |  |  |
| C/C=C\C[C@@H](C/C=C\NC(=O)[C@@H](NC(=O)\C=C/C=C\C(C)=C\[C@H](C)[C@@H]1CC=C(OC)C(=O)O1)C(C)(C)C)OC(N)=O [PM060184, reference compound] |  | ca. −4.1% | 250.7 (212.8-433.0) mm3 | 124.8 (102.8-213.2) mm3 | 88.5 (68.2-118.3) mm3 | 114.4 (63.7-155.1) mm3 | 267.3 (100.4-414.0) mm3 | 56 days | 18 days |  | 15 days | 27 days |  | 8.3e-11 M | three out of eight |
